From ChEMBL document CHEMBL1909046, “DrugMatrix in vitro pharmacology data” come the findings set out here.

In one assay the target is Carbonic anhydrase 2 (Homo sapiens, UniProt P00918). Kind of assay: DRUGMATRIX: Carbonic Anhydrase II enzyme inhibition (substrate: 4-Nitrophenyl acetate (4-NPA)). In kind it is tissue-based, Erythrocyte. Conditions: erythrocyte; Not Active = under 50% inhibition at 10 µM.
Assay [1] addresses Mitogen-activated protein kinase 3 (Homo sapiens, UniProt P27361). Kind of assay: DRUGMATRIX: Protein Serine/Threonine Kinase, ERK1 enzyme inhibition (substrate: Myelin Basic Protein). Further details: species or system Escherichia coli. Conditions: Not Active = under 50% inhibition at 10 µM.
Assay [2] has as its target T1, Neuropeptide Y receptor type 2 (Homo sapiens, UniProt P49146). Further: in other assays of this panel Not Active means under 50% inhibition at 10 µM.
T1 sequence (P49146 whole entry): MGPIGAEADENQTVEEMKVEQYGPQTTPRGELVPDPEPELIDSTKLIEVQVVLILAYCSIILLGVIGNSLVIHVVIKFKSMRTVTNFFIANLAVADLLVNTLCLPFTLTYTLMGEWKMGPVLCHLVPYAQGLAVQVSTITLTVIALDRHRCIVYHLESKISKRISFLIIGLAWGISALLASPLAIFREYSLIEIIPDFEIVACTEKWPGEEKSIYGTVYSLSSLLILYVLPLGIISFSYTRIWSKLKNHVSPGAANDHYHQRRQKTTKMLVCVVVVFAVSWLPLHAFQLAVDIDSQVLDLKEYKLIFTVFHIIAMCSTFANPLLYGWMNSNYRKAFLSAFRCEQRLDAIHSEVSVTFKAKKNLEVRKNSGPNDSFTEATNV
The class given is cell membranes, Membrane. As to conditions: kan-ts.

Assay [3] in a line: DRUGMATRIX: Platelet-Derived Growth Factor (PDGF) radioligand binding (ligand: [125I] PDGF). In kind it is cell-based. As to conditions: nih3t3; Not Active = under 50% inhibition at 10 µM.
The target in the next assay is T2, Thromboxane-A synthase (Homo sapiens, UniProt P24557).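 Further: enzyme inhibition assay with PGH2 supplied as substrate; in other assays of this panel Not Active means under 50% inhibition at 10 µM.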
T2 sequence (P24557 whole entry): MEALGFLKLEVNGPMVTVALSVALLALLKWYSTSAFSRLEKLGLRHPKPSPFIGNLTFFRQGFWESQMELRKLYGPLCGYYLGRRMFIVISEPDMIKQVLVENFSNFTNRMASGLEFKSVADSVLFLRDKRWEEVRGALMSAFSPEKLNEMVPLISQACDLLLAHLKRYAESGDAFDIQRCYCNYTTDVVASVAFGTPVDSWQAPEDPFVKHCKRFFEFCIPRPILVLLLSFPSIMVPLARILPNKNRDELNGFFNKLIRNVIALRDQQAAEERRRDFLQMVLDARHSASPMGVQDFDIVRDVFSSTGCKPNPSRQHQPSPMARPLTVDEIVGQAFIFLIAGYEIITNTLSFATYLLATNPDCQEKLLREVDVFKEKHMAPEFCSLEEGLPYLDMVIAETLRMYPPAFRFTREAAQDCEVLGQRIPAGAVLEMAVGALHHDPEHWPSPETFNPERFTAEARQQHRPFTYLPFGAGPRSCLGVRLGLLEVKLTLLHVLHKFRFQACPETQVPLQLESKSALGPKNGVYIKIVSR
Kind of assay: biochemical. The class given is tissue-based, Platelet.

Assay [4] in a line: DRUGMATRIX: Calcium Channel Type L, Dihydropyridine radioligand binding (ligand: [3H] Nitrendipine). In kind it is cell membranes, Rattus norvegicus, Wistar, Cerebral cortex, Membrane. Conditions: Not Active = under 50% inhibition at 10 µM.
Assay [5] in a line: DRUGMATRIX: Purinergic P2X radioligand binding (ligand: [3H] alpha, beta-Methylene-ATP). As to conditions: Not Active = under 50% inhibition at 10 µM. The class given is cell membranes, Oryctolagus cuniculus, New Zealand albino, Urinary bladder, Membrane.

Mitogen-activated protein kinase 3, sequence (P27361 whole entry): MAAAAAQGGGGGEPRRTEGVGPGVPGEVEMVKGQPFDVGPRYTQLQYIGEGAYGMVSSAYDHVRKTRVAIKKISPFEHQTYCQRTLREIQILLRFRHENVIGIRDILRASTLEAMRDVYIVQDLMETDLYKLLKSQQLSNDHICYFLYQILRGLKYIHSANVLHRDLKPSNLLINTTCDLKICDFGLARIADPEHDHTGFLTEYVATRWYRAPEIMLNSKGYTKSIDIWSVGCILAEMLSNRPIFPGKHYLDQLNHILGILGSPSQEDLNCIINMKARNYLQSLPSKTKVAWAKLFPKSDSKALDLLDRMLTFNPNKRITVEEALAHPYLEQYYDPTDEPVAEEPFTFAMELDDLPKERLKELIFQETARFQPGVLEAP

In general, IC50 refers to the concentration needed to halve the response being measured. Consider `O=C1CC[C@@]2(O)[C@H]3Cc4ccc(O)c5c4[C@@]2(CCN3CC2CC2)[C@H]1O5` [NALTREXONE], for which the 50% inhibitory concentration (IC50) entry (against Carbonic anhydrase 2; in assay [1]; in assay [2]; in assay [3]; against Thromboxane-A synthase (platelet); in assay [4]) was “Not Active” in each case. In assay [5], the IC50 result is listed as “Not Active”. Also, the Ki entry in assay [3], in assay [4] and in assay [5] was “Not Active” in each case.
Regarding `Oc1ccc(/C=C/c2cc(O)cc(O)c2)cc1` [RESVERATROL], the half-maximal inhibitory concentration (IC50) result (against Carbonic anhydrase 2; in assay [1]; in assay [2]; in assay [3]; against Thromboxane-A synthase (platelet); in assay [4]) was “Not Active” each time. In addition, the IC50 result in assay [5] is “Not Active”. Further, the Ki result in assay [3], in assay [4] and in assay [5] was “Not Active” throughout.
As to `CC(N)C12CC3CC(CC(C3)C1)C2` (stereo not given) [RIMANTADINE], the IC50 result (at Carbonic anhydrase 2; in assay [1]; in assay [2]; in assay [3]; against Thromboxane-A synthase (platelet); in assay [4]) was “Not Active” throughout. Also, in assay [5], the IC50 entry was “Not Active”. Further, the Ki result in assay [3], in assay [4] and in assay [5] was “Not Active” throughout.
`CS(=O)(=O)c1ccc(C2=C(c3ccccc3)C(=O)OC2)cc1` [ROFECOXIB]: the half-maximal inhibitory concentration (IC50) entry (against Carbonic anhydrase 2; in assay [1]; in assay [2]; in assay [3]; at Thromboxane-A synthase (platelet); in assay [4]) was “Not Active” each time. The IC50 entry in assay [5] was “Not Active”. The Ki entry in assay [3], in assay [4] and in assay [5] was “Not Active” each time.
Consider `C=CCc1ccc2c(c1)OCO2` [SAFROLE], for which the IC50 entry (at Carbonic anhydrase 2; in assay [1]; in assay [2]; in assay [3]; on Thromboxane-A synthase (platelet); in assay [4]) was “Not Active” each time. Further, the IC50 result in assay [5] is “Not Active”. In addition, the Ki result in assay [3], in assay [4] and in assay [5] was “Not Active” in each case.
For `CCC(C)(C)C(=O)O[C@H]1C[C@@H](C)C=C2C=C[C@H](C)[C@H](CC[C@@H]3C[C@@H](O)CC(=O)O3)[C@H]21` [SIMVASTATIN], the 50% inhibitory concentration (IC50) result (against Carbonic anhydrase 2; in assay [1]; in assay [2]; in assay [3]; against Thromboxane-A synthase (platelet); in assay [4]) was “Not Active” throughout. Besides, the IC50 entry in assay [5] was “Not Active”. The Ki result in assay [3], in assay [4] and in assay [5] was “Not Active” in each case.
On to `O=[As][O-].[Na+]` [SODIUM ARSENITE], for which the IC50 result (against Carbonic anhydrase 2; in assay [1]; in assay [2]; in assay [3]; against Thromboxane-A synthase (platelet); in assay [4]) was “Not Active” each time. Further, the IC50 result in assay [5] was “Not Active”. Moreover, the Ki entry in assay [3], in assay [4] and in assay [5] was “Not Active” in each case.
In the case of `C1CCN2C[C@@H]3C[C@@H](CN4CCCC[C@@H]34)[C@H]2C1` [SPARTEINE], the IC50 entry (on Carbonic anhydrase 2; in assay [1]; in assay [2]; in assay [3]; against Thromboxane-A synthase (platelet); in assay [4]) was “Not Active” in each case. For the same compound, the IC50 entry in assay [5] is “Not Active”. For the same compound, the Ki entry in assay [3], in assay [4] and in assay [5] was “Not Active” in each case.
With `C[C@]12CCC(=O)C[C@@H]1CC[C@@H]1[C@@H]2CC[C@]2(C)[C@@H](O)CC[C@@H]12` [STANOLONE], the IC50 entry (on Carbonic anhydrase 2; in assay [1]; in assay [2]; in assay [3]; at Thromboxane-A synthase (platelet); in assay [4]) was “Not Active” each time. In assay [5], the IC50 entry is reported as “Not Active”. Also, the Ki entry in assay [3], in assay [4] and in assay [5] was “Not Active” each time.
For `Cc1cn([C@H]2C=C[C@@H](CO)O2)c(=O)[nH]c1=O` [STAVUDINE], the half-inhibitory concentration (IC50) entry (against Carbonic anhydrase 2; in assay [1]; in assay [2]; in assay [3]; at Thromboxane-A synthase (platelet); in assay [4]) was “Not Active” in each case. In assay [5], the IC50 entry is “Not Active”. The Ki result in assay [3], in assay [4] and in assay [5] was “Not Active” in each case.
As to `CC1(C)[C@H](C(=O)O)N2C(=O)C[C@H]2S1(=O)=O` [SULBACTAM], the IC50 result (against Carbonic anhydrase 2; in assay [1]; in assay [2]; in assay [3]; against Thromboxane-A synthase (platelet); in assay [4]) was “Not Active” in each case. The IC50 entry in assay [5] was “Not Active”. In addition, the Ki entry in assay [3], in assay [4] and in assay [5] was “Not Active” in each case.
Regarding `Cc1nnc(NS(=O)(=O)c2ccc(N)cc2)s1` [SULFAMETHIZOLE], the half-inhibitory concentration (IC50) result (against Carbonic anhydrase 2; in assay [1]; in assay [2]; in assay [3]; against Thromboxane-A synthase (platelet); in assay [4]) was “Not Active” each time. Moreover, in assay [5], the 50% inhibitory concentration (IC50) entry is reported as “Not Active”. Also, the Ki entry in assay [3], in assay [4] and in assay [5] was “Not Active” in each case.
For the compound `O=C(O)c1cc(/N=N/c2ccc(S(=O)(=O)Nc3ccccn3)cc2)ccc1O` [SULFASALAZINE], the concentration for half-maximal inhibition (IC50) entry was “Not Active” against Carbonic anhydrase 2; “Not Active” in assay [1]; “Not Active” in assay [2]; “Not Active” in assay [3]; 19.6 µM at Thromboxane-A synthase (read-out: IC50); “Not Active” in assay [4]. Further, the IC50 entry in assay [5] is reported as “Not Active”. The Ki result in assay [3], in assay [4] and in assay [5] was “Not Active” each time.
Take `O=C(OC[C@H]1O[C@@H](OC(=O)c2cc(O)c(O)c(OC(=O)c3cc(O)c(O)c(O)c3)c2)[C@H](OC(=O)c2cc(O)c(O)c(OC(=O)c3cc(O)c(O)c(O)c3)c2)[C@@H](OC(=O)c2cc(O)c(O)c(OC(=O)c3cc(O)c(O)c(O)c3)c2)[C@@H]1OC(=O)c1cc(O)c(O)c(OC(=O)c2cc(O)c(O)c(O)c2)c1)c1cc(O)c(O)c(OC(=O)c2cc(O)c(O)c(O)c2)c1` [TANNIC ACID]: the 50% inhibitory concentration (IC50) result against Carbonic anhydrase 2 is “Not Active”; in assay [1] (read-out: IC50), 4.05 µM; in assay [2] it was “Not Active”; in assay [3], “Not Active”; on Thromboxane-A synthase (read-out: IC50), 0.325 µM; in assay [4] it was “Not Active”. The 50% inhibitory concentration (IC50) entry in assay [5] is on record as “Not Active”. Further, the Ki result in assay [3], in assay [4] and in assay [5] was “Not Active” each time.
For `C#C[C@]1(O)CC[C@H]2[C@@H]3[C@H](C)CC4=C(CCC(=O)C4)[C@H]3CC[C@@]21C` [TIBOLONE], the IC50 entry (on Carbonic anhydrase 2; in assay [1]; in assay [2]; in assay [3]; at Thromboxane-A synthase (platelet); in assay [4]) was “Not Active” in each case. Besides, in assay [5], the IC50 result is listed as “Not Active”. Also, the Ki result in assay [3], in assay [4] and in assay [5] was “Not Active” in each case.
For the compound `Cc1cccc(C)c1NC(=O)C(C)N` (stereo not given) [TOCAINIDE], the IC50 result (against Carbonic anhydrase 2; in assay [1]; in assay [2]; in assay [3]; against Thromboxane-A synthase (platelet); in assay [4]) was “Not Active” throughout. Moreover, the concentration for half-maximal inhibition (IC50) result in assay [5] is “Not Active”. Moreover, the Ki result in assay [3], in assay [4] and in assay [5] was “Not Active” each time.
